Reference: patent US7671085B2, “Non-steroidal farnesoid X receptor modulators and methods for the use thereof” (The Salk Institute for Biological Studies, priority 2002, dated 2010)
Entries after “also recorded” stand apart in the source; their conditions may differ.

Legend:
[1] = test system: IBABP mRNA in HT29-FXRFL cells; assay: Northern blot of IBABP mRNA in HT29 stable cell lines; format: cell-based, Human; settings: for concentration for maximal induction of IBABP mRNA: overnight treatment
Description: (§1) HepG2 or HT29-derived cell lines were typically cultured in medium containing superstripped FBS for 24 hr before the addition of a ligand or DMSO (vehicle) for an additional 24-48 hr. Total RNA was isolated using TRIzol reagent and was resolved (10 μg/lane) on a 1% agarose, 2.2 M formaldehyde gel, transferred to a nylon membrane (Hybond N^+; Amersham Biosciences, Inc.), and cross-linked to the membrane with UV light.
(§2) cDNA probes were radiolabeled with [α-^32P]dCTP using the highprime labeling kit (Amersham Biosciences, Inc.). Membranes were hybridized using the QuikHyb hybridization solution (Stratagene, La Jolla, Calif.) according to the manufacturer's protocol. Blots were normalized for variations of RNA loading by hybridization to a control probe, either, 18 S ribosomal cDNA, or the ribosomal protein 36B4. The RNA levels were quantitated using a PhosphorImager (ImageQuant software; Molecular Dynamics, Inc., Sunnyvale, Calif.) in addition to being exposed to X-ray film.
Human colon cells HT29 (FXR null until differentiated) were infected with retroviral vectors that expressed either FXR constructs and the puromycin-resistant gene or the puromycin-resistant gene alone. Puromycin resistant cells were isolated and pooled cell populations were propagated that harbored either the vector alone (HT29-BABE), overexpressed FXR full length (HT29-FXRFL), a non-functional FXR truncated at the AF2 region (HT29-FXR-AF2), or a constitutively active FXR that has the VP16 activation domain fused N-terminal of the protein (HT29-VP16-FXR). Confirmation of the successful establishment of the different stable cell lines was established via northern blot analysis of FXR message levels in the cells.
These observations verify the usefulness of this colon cell model system for studying the induction of FXR target genes.
The ability of the novel compounds identified herein to induce IBABP gene expression in this cell system was also examined. Total RNA from HT29 stable cells treated overnight with fexaramine, fexarine and fexarene was probed for IBABP gene expression.

[2] = test system: FXR target genes SHP, MRP-2, BSEP and PLTP; assay: Northern blot of FXR target genes in HEPG2-FXR cells; format: cell-based; settings: for induction of FXR target genes, in words: SHP, MRP-2, BSEP, PLTP; for concentration for maximal activation of FXR target genes: overnight treatment
Description: as §1, §2
Total RNA was isolated and the expression of the FXR target genes SHP, MRP-2, BSEP and PLTP was measured by Northern blot analysis. […]

[3] = test system: FXR (IBABP, PLTP and MRP-2 promoters); assay: transient transfection cell-based assay with natural promoters of FXR targets (IBABP, PLTP, MRP-2)
From the text: For this study, the following gene promoters were used: intestinal bile acid binding protein (IBABP; see, for example, Grober et al. (1999). Identification of a bile acid-responsive element in the human ileal bile acid-binding protein gene. Involvement of the farnesoid X receptor/9-cis-retinoic acid receptor heterodimer. J Biol Chem. 274(42), 29749-54), phospholipid transfer protein (PLTP) (Urizar et al (2000). The farnesoid X-activated receptor mediates bile acid activation of phospholipid transfer protein gene expression. J Biol Chem. 275(50), 39313-7) and multidrug resistance related protein 2 (MRP-2) (Kast et al. (2002), supra), which are all well characterized targets of FXR. The natural promoters of both the IBABP and PLTP genes contain one copy of an inverted repeat with a one base spacing (IR-1) while MRP-2 contains an ER-8 element. […] The most robust activation (28-fold) was seen on the IBABP promoter. Less robust (2-3 fold) but specific activation was observed on the PLTP and MRP-2 promoters.

[4] = molecular target: T1, FXR ligand-binding domain (Homo sapiens, UniProt Q96RI1); assay: FRET-based coactivator binding assay (SRC-1 peptide recruitment); format: biochemical
T1 sequence (Q96RI1 262-486 limits assumed): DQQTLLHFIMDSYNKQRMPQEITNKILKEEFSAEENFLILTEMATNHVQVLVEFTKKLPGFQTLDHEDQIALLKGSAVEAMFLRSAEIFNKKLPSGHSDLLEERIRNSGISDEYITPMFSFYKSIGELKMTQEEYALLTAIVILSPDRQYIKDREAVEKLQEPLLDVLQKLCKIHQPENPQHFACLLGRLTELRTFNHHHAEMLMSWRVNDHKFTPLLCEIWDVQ
From the text: To determine if the compounds identified as ligands could promote the association of FXR with co-activators in vitro, a fluorescence resonance energy transfer (FRET)-based coactivator binding assay was employed (see, for example, Makishima et al. (1999), supra, Urizar et al. (2002). A natural product that lowers cholesterol as an antagonist ligand for FXR. Science. 296(5573), 1703-6). This assay relies on an agonist-induced interaction between the nuclear receptor and its coactivator bringing two fluorogenic partners together resulting in the nuclear receptor ligand-dependent FRET.

[5] = HT29-BABE or HT29-FXR-AF2 cell lines

| SMILES | induction of IBABP mRNA, in words [1, 5] | induction of IBABP mRNA, in words ([1]; HT29-FXRFL cells) | concentration for maximal induction of IBABP mRNA ([1]; HT29-FXRFL cells) | induction of FXR target genes, in words [2] | concentration for maximal activation of FXR target genes [2] | concentration of maximum efficacy [3] | EC50 [4] | induction of FXR target genes, in words ([2]; listed as fexaramine) |
| --- | --- | --- | --- | --- | --- | --- | --- | --- |
| COC(=O)C=Cc1cccc(N(Cc2ccc(C=Cc3ccccc3)cc2)C(=O)C2CCCCC2)c1 [Compound 121] | No induction | induced expression of the IBABP mRNA | 1 µM | strong induction | 10 µM | 1 µM | ~255 nM | – |
| COC(=O)/C=C/c1cccc(N(Cc2ccc(-c3ccc4c(c3)OCO4)cc2)C(=O)C2CCCCC2)c1 [Compound 244] | No induction | induced expression of the IBABP mRNA | 1 µM | strong induction | 10 µM | 1 µM | 222 nM | – |
| COC(=O)/C=C/c1cccc(N(Cc2ccc(-c3ccc(N(C)C)cc3)cc2)C(=O)C2CCCCC2)c1 [Compound 259] | No induction | induced expression of the IBABP mRNA | 1 µM | – | 10 µM | 1 µM | 255 nM | most effective inducer of target genes; also recorded: matched GW4064 induced activation of the BSEP and MRP-2 genes |
